Usually inhibition stands for how much of the control response was suppressed.

Experiment [1] has as its target T1, recombinant human 17β-HSD2 (Homo sapiens, UniProt P37059).
T1 construct: made in house; host or cells: Sd9 (Sf9) insect cells, baculovirus (Bac to Bac Expression System)
T1 sequence (P37059 1-387): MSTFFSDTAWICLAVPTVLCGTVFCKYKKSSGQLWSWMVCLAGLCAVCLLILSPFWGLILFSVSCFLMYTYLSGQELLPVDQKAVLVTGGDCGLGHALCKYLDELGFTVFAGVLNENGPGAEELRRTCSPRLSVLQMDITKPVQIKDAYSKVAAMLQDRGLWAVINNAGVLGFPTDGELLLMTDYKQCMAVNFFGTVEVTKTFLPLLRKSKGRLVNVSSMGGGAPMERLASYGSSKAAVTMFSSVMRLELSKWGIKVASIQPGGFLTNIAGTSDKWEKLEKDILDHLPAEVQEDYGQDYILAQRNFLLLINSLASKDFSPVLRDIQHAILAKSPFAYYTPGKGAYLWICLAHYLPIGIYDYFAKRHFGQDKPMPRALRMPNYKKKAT
As to the kind of experiment: Inhibition of recombinant human 17β-HSD2. The class given is biochemical. Particulars: inhibitor at 1 μM; 50 nM estradiol, 1 mM NADH, 30 min at RT; read-out: 17β-HSD2 Inhibition % at 1 μM. The procedure, abridged: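 Membrane extract of baculovirus-expressed enzyme in Sf9 cells (4 μg/ml) incubated in 20 mM KH2PO4 pH 8.5 with 50 nM estradiol (³H-tracer) and 1 mM NADH, 30 min at RT, 1% DMSO, inhibitor at 1 μM or 0.1 μM. TCA-stopped; estradiol-to-estrone conversion by radio-HPLC; % inhibition = 100 − % conversion.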

Experiment [2] has as its target T2, recombinant human 17β-HSD1 (Homo sapiens, UniProt P14061).
T2 construct: made in house; host or cells: Sd9 (Sf9) insect cells, baculovirus (Bac to Bac Expression System)
T2 sequence (P14061 1-328): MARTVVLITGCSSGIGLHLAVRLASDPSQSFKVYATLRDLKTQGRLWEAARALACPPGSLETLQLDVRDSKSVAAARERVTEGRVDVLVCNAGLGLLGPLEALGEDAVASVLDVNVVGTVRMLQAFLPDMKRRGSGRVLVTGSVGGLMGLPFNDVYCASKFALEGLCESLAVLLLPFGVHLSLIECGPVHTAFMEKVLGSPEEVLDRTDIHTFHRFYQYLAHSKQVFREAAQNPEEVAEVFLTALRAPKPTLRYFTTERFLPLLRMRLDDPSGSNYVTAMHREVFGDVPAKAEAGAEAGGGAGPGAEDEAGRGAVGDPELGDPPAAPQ
Put plainly: Inhibition of recombinant human 17β-HSD1. The class given is biochemical. The note with it: inhibitor at 1 μM; 30 nM estrone, 1 mM NADPH, 30 min at RT; read-out: 17β-HDS1 Inhibition % at 1 μM. The procedure, abridged:
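Microsomal enzyme from baculovirus-infected insect cells (1 μg/ml) incubated 30 min at RT in 20 mM KH2PO4 pH 7.4 with 30 nM ³H-estrone and 1 mM NADPH, inhibitor at 1 μM or 0.1 μM, 1% DMSO. TCA-stopped; estrone/estradiol separated by radio-HPLC; % inhibition = 100 − % conversion.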

On to `Cc1cnc(NC(=O)CC[C@@H]2CC(=O)[C@@]3(C)CCC4c5ccc(O)c(Cl)c5CCC4C23)s1` (stereo partly drawn) [Compound 63, 3-((13S,15R)-4-chloro-3-hydroxy-13-methyl-17-oxo-7,8,9,11,12,13,14,15,16,17-decahydro-6H-cyclopenta[a]phenanthren-15-yl)-N-(5-methylthiazol-2-yl)propanamide], for which the inhibition at 1 µM in experiment [1] turned out to be 21%; in experiment [2], 99%.

With `Cc1cnc(NC(=O)CC[C@@H]2CC(=O)[C@@]3(C)CCC4c5cc(Cl)c(O)cc5CCC4C23)s1` (stereo partly drawn) [Compound 64, 3-((13S,15R)-2-chloro-3-hydroxy-13-methyl-17-oxo-7,8,9,11,12,13,14,15,16,17-decahydro-6H-cyclopenta[a]phenanthren-15-yl)-N-(5-methylthiazol-2-yl)propanamide], the inhibition at 1 µM in experiment [1] worked out at 5%; in experiment [2], 98%.

With `Cc1cnc(NC(=O)CC[C@@H]2CC(=O)[C@@]3(C)CCC4c5ccc(O)c(F)c5CCC4C23)s1` (stereo partly drawn) [Compound 66, 3-((13S,15R)-4-fluoro-3-hydroxy-13-methyl-17-oxo-7,8,9,11,12,13,14,15,16,17-decahydro-6H-cyclopenta[a]phenanthren-15-yl)-N-(5-methylthiazol-2-yl)propanamide], the values for the inhibition at 1 µM in experiment [1] and in experiment [2] were 8% and 98%, respectively.

For the compound `Cc1cnc(NC(=O)CC[C@@H]2CC(=O)[C@@]3(C)CCC4c5cc(F)c(O)cc5CCC4C23)s1` (stereo partly drawn) [Compound 67, 3-((13S,15R)-2-fluoro-3-hydroxy-13-methyl-17-oxo-7,8,9,11,12,13,14,15,16,17-decahydro-6H-cyclopenta[a]phenanthren-15-yl)-N-(5-methylthiazol-2-yl)propanamide], the inhibition at 1 µM stood at 6% in experiment [1] and 98% in experiment [2].

As to `Cc1cnc(NC(=O)CC[C@@H]2CC(=O)[C@@]3(C)CCC4c5cc(O)c(O)cc5CCC4C23)s1` (stereo partly drawn) [Compound 68, 3-((13S,15R)-2,3-dihydroxy-13-methyl-17-oxo-7,8,9,11,12,13,14,15,16,17-decahydro-6H-cyclopenta[a]phenanthren-15-yl)-N-(5-methylthiazol-2-yl)propanamide], the inhibition at 1 µM in experiment [1] turned out to be 3%; in experiment [2], 88%.

As to `CC(=O)Oc1cc2c(cc1F)C1CC[C@]3(C)C(=O)C[C@@H](CCC(=O)Nc4ncc(C)s4)C3C1CC2` (stereo partly drawn) [Compound 69, (13S,15R)-2-fluoro-13-methyl-15-(3-((5-methylthiazol-2-yl)amino)-3-oxopropyl)-17-oxo-7,8,9,11,12,13,14,15,16,17-decahydro-6H-cyclopenta[a]phenanthren-3-yl acetate], the inhibition at 1 µM in experiment [1] is 4%; in experiment [2], 57%.

For the compound `Cc1cnc(NC(=O)CC[C@@H]2CC(=O)[C@@]3(C)CCC4c5cc(Br)c(O)c(F)c5CCC4C23)s1` (stereo partly drawn) [Compound 71, 3-((13S,15R)-2-bromo-4-fluoro-3-hydroxy-13-methyl-17-oxo-7,8,9,11,12,13,14,15,16,17-decahydro-6H-cyclopenta[a]phenanthren-15-yl)-N-(5-methylthiazol-2-yl)propanamide], the values for the inhibition at 1 µM in experiment [1] and in experiment [2] were 7% and 91%, respectively.

As for `Cc1cnc(NC(=O)CC[C@@H]2CC(=O)[C@@]3(C)CCC4c5cc(F)c(O)c(Br)c5CCC4C23)s1` (stereo partly drawn) [Compound 72, 3-((13S,15R)-4-bromo-2-fluoro-3-hydroxy-13-methyl-17-oxo-7,8,9,11,12,13,14,15,16,17-decahydro-6H-cyclopenta[a]phenanthren-15-yl)-N-(5-methylthiazol-2-yl)propanamide], the results for the inhibition at 1 µM in experiment [1] and in experiment [2] were 10% and 89%, respectively.

Regarding `Cc1cnc(NC(=O)CC[C@@H]2CC(=O)[C@@]3(C)CCC4c5cc([N+](=O)[O-])c(O)c(F)c5CCC4C23)s1` (stereo partly drawn) [Compound 73, 3-((13S,15R)-4-fluoro-3-hydroxy-13-methyl-2-nitro-17-oxo-7,8,9,11,12,13,14,15,16,17-decahydro-6H-cyclopenta[a]phenanthren-15-yl)-N-(5-methylthiazol-2-yl)propanamide], the inhibition at 1 µM in experiment [1] amounted to 2%; in experiment [2], 90%.

Take `Cc1cnc(NC(=O)CC[C@@H]2CC(=O)[C@@]3(C)CCC4c5cc([N+](=O)[O-])c(O)c(Cl)c5CCC4C23)s1` (stereo partly drawn) [Compound 75, 3-((13S,15R)-4-chloro-3-hydroxy-13-methyl-2-nitro-17-oxo-7,8,9,11,12,13,14,15,16,17-decahydro-6H-cyclopenta[a]phenanthren-15-yl)-N-(5-methylthiazol-2-yl)propanamide]: the values for the inhibition at 1 µM in experiment [1] and in experiment [2] were 2% and 89%, respectively.

For `Cc1cnc(NC(=O)CC[C@@H]2CC(=O)[C@@]3(C)CCC4c5cc6ncoc6c(Cl)c5CCC4C23)s1` (stereo partly drawn) [Compound 77, 3-((3R,12aS)-6-chloro-12a-methyl-1-oxo-2,3,3a,3b,4,5,10b,11,12,12a-decahydro-1H-cyclopenta[7,8]phenanthro[3,2-d]oxazol-3-yl)-N-(5-methylthiazol-2-yl)propanamide], the inhibition at 1 µM in experiment [1] was found to be 0%; in experiment [2], 87%.

In the case of `Cc1cnc(NC(=O)CC[C@@H]2CC(=O)[C@@]3(C)CCC4c5cc6ncoc6c(F)c5CCC4C23)s1` (stereo partly drawn) [Compound 78, 3-((3R,12aS)-6-fluoro-12a-methyl-1-oxo-2,3,3a,3b,4,5,10b,11,12,12a-decahydro-1H-cyclopenta[7,8]phenanthro[3,2-d]oxazol-3-yl)-N-(5-methylthiazol-2-yl)propanamide], the inhibition at 1 µM in experiment [1] turned out to be 1%; in experiment [2], 91%.

`Cc1cnc(NC(=O)CC[C@@H]2CC(=O)[C@@]3(C)CCC4c5ccc(OS(=O)(=O)C(F)(F)F)cc5CCC4C23)s1` (stereo partly drawn) [Compound 79, (13S,15R)-13-methyl-15-(3-((5-methylthiazol-2-yl)amino)-3-oxopropyl)-17-oxo-7,8,9,11,12,13,14,15,16,17-decahydro-6H-cyclopenta[a]phenanthren-3-yl trifluoromethanesulfonate]: the inhibition at 1 µM in experiment [1] was determined as 0%; in experiment [2], 72%.

In the case of `Cc1cnc(NC(=O)CC[C@@H]2CC(=O)[C@@]3(C)CCC4c5cc([N+](=O)[O-])ccc5CCC4C23)s1` (stereo partly drawn) [Compound 84, 3-((13S,15R)-13-methyl-2-nitro-17-oxo-7,8,9,11,12,13,14,15,16,17-decahydro-6H-cyclopenta[a]phenanthren-15-yl)-N-(5-methylthiazol-2-yl)propanamide], the inhibition at 1 µM in experiment [1] is 1%; in experiment [2] it was 93%.

In the case of `Cc1cnc(NC(=O)CC[C@@H]2CC(=O)[C@@]3(C)CCC4c5cccc([N+](=O)[O-])c5CCC4C23)s1` (stereo partly drawn) [Compound 85, 3-((13S,15R)-13-methyl-4-nitro-17-oxo-7,8,9,11,12,13,14,15,16,17-decahydro-6H-cyclopenta[a]phenanthren-15-yl)-N-(5-methylthiazol-2-yl)propanamide], the values for the inhibition at 1 µM in experiment [1] and in experiment [2] were 2% and 93%, respectively.

Consider `Cc1cnc(NC(=O)CC[C@@H]2CC(=O)[C@@]3(C)CCC4c5cc(F)ccc5CCC4C23)s1` (stereo partly drawn) [Compound 86, 3-((13S,15R)-2-fluoro-13-methyl-17-oxo-7,8,9,11,12,13,14,15,16,17-decahydro-6H-cyclopenta[a]phenanthren-15-yl)-N-(5-methylthiazol-2-yl)propanamide], for which the figures for the inhibition at 1 µM in experiment [1] and in experiment [2] were 0% and 92%, respectively.

The values are drawn from US10377791B2, “Therapeutically active estratrienthiazole derivatives as inhibitors of 17 B-hydroxysteroid dehydrogenase, type 1” (FORENDO PHARMA LTD, priority 2013, dated 2019).
